Laboratory results published in patent publication US9878054B2, “Polypeptide and lipophilic moiety conjugate compositions, formulations, and uses related thereto” (Tufts Medical Center, Inc., priority 2012, dated 2018).
pIC50: −log10 of the molar value. Where a SMILES comes first, the peptide text is derived from it. The star is where a group is joined. Palmitoyl = CCCCCCCCCCCCCCCC(=O)*

Columns and labels:
[1] = Solubility of lyophilized PZ-128 after reconstitution (visual inspection); assay type: physicochemical
Description: Column recovered fractions containing PZ-128 ammonium salts were lyophilized by using the following procedure: 5 mL of elute from reverse phase column cartridge was place into a 15-mL vial; the sample frozen in dry ice-isopropanol bath for 5 minutes with swirling until completely frozen, the temperature should be about −35 to −45° C. and the vacuum pressure should be about 60-100×10^−3 mBar; frozen samples/vials are places in a 0.5-1 L lyophilization glass container; open the chamber to the vacuum pump where the vacuum pressure should rise and then come back to 100-200×10^−3 M Bar until drying is complete; and the sample is stored at −20° C. The product of the first PZ-128 lyophilization was dissolved in pure water and lyophilized a second time.
The different excipients listed in Table 1 were added to 10×500 μL aliquots of the fully soluble 1 mg/mL PZ-128 solution (product of the first lyophilization), mixed, froze, and lyophilization overnight. After lyophilization, the appearance of the dried lyophilizate was examined and the solubility determined after reconstitution with 100 μL water to 5 mg/mL PZ-128 salt product.
The appearances of each of the samples after a second lyophilization from water with the different excipients are listed in Table 1. […]

PAR4 = biological target: T1, PAR4 (Homo sapiens, UniProt Q96RI0); experiment: Human platelet aggregation, PAR4 agonist AYPGKF; assay type: cell-based; details: human platelets; 200 μM AYPGKF
T1 construct: Platelets were isolated from platelet rich plasma (PRP) using Sepharose 2B columns; endogenous in cells; host or cells: human platelets from healthy donors, gel-filtered
T1 sequence (Q96RI0 18-385): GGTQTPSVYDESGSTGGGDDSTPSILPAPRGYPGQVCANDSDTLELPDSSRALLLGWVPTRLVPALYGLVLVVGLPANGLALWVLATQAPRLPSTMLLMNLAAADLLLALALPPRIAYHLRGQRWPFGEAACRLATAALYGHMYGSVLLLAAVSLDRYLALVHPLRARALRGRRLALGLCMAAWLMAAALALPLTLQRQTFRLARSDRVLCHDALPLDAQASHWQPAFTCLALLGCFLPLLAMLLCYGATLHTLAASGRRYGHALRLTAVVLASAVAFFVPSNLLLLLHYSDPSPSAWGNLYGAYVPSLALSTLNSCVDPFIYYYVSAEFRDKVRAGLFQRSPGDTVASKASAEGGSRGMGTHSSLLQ
Description: (§1) A, Depiction of the mechanism of action of the cell-penetrating PZ-128 pepducin compound targeting the third intracellular loop (red) of PAR1. B, The NMR structure of PZ-128 was determined by simulated annealing methods using 210 distance restraints and included restraints to the proximal 3 hydrocarbons of the lipid. […] D, PZ-128 inhibits PAR1-dependent platelet aggregation. Gel filtered human platelets were treated with various concentrations of PZ-128 and then challenged with the PAR1 agonist SFLLRN (2.5 μM), 20 μM ADP, 200 μM AYPGKF or 1 mg/ml Ristocetin. E, Human platelets were treated with 3 μM PZ-128, 3 μM RWJ-56110, or 5% dextrose vehicle before the addition of various concentrations of thrombin (n=3-5).
(§2) PZ-128 also markedly right-shifted thrombin-induced aggregation by 5-fold. By comparison, the small molecule RWJ-56110 which antagonizes PAR1 at the extracellular ligand-binding site gave a 2-fold right shift in the thrombin activation curve of human platelets.
(§3) Whole blood from healthy donors was collected into a 30 ml syringe containing sodium citrate (0.4% vol/vol final). Platelets were isolated from platelet rich plasma (PRP) using Sepharose 2B columns in modified PIPES buffer.

human platelets (ADP) = experiment: Human platelet aggregation, ADP; assay type: cell-based; details: 20 μM ADP
Description: as §1, §2, §3

[2] = system: guinea pig platelets (thromboxane mimetic U46119); experiment: Guinea pig ex vivo platelet aggregation to thromboxane mimetic U46119 after iv infusion; assay type: in vivo; details: 3 or 6 mg/kg iv, 20 μM U46119
Description: PZ-128 or 5% dextrose USP vehicle was infused for 10 min into the jugular vein of male and female guinea pigs (0.55-0.65 kg). A-C, At the 15 min time point, whole blood was collected by cardiac puncture in 100 μg/ml PPACK/4% Na-citrate (final) anti-coagulant and platelet rich plasma (PRP) prepared and aggregation measurements were performed. […] B-C, PRP obtained at the 15 min time point after infusion with vehicle, 3 mg/kg PZ-128 or 6 mg/kg PZ128 was challenged with 2.5 μM SFLLRN, 20 μM ADP or 20 μM thromboxane mimetic, U46119. Individual data points (n=3) are overlayed on bar graphs depicting mean±SD. […] Data in B-D were analyzed by the non-parametric Kruskal-Wallis test with the Dunn's multiple pairwise comparison post-test.
PZ-128 micelles were delivered by internal jugular vein infusions over 10 min.
Guinea pigs weighing 600-650 g were used for platelet aggregation experiments. PZ-128 micelles (3 or 6 mg/kg) were administered by a 10 min intravenous infusion, and blood was collected by cardiac puncture into sodium citrate (0.4% vol/vol final) 5 minutes after cessation of the infusion. PRP was prepared and PPACK added to a final concentration of 100 μg/ml. PRP was calcified with 2.5 mM CaCl2 and aggregation was performed as described above.

PAR1 = biological target: T2, PAR1 (Homo sapiens, UniProt P25116); experiment: Human platelet aggregation, PAR1 agonist SFLLRN; assay type: cell-based; details: gel filtered human platelets, SFLLRN 2.5 μM
T2 construct: Platelets were isolated from platelet rich plasma (PRP) using Sepharose 2B columns; endogenous in cells; host or cells: human platelets from healthy donors, gel-filtered
T2 sequence (P25116 22-425): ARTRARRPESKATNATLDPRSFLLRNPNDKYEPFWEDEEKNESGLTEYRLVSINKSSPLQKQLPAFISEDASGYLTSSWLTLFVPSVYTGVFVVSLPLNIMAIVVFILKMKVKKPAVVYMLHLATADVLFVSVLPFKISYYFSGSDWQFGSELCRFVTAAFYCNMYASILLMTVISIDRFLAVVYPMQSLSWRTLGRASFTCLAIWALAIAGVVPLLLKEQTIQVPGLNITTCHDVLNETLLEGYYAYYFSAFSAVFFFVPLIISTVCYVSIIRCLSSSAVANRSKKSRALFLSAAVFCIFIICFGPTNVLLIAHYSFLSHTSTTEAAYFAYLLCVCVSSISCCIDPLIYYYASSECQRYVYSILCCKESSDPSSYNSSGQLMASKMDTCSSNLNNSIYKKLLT
Description: as §1, §2, §3

Which “Solubility of product of second lyophilization from pure water” value ([1]; 5 mg/mL, tested formulations including 100% water) does the source give for CCCCCCCCCCCCCCCC(=O)N[C@@H](CCCCN)C(=O)N[C@@H](CCCCN)C(=O)N[C@@H](CO)C(=O)N[C@@H](CCCNC(=N)N)C(=O)N[C@@H](C)C(=O)N[C@@H](CC(C)C)C(=O)N[C@@H](Cc1ccccc1)C(N)=O [PZ-128, palmitate-KKSRALF-NH2] (Palmitoyl-KKSRALF-NH2) here?
The value was “did not solubilize”.

What about the “Solubility of micelles after filtration and second lyophilization with ammonium acetate” value ([1]; 100% water and 5% dextrose/water at 5 mg/mL) of the same molecule?
The value was “readily soluble”.

And the “Inhibitory activity against PAR4 (AYPGKF) aggregation” value (PAR4)?
The value was “no inhibitory activity”.

What about the “Inhibitory activity against ADP aggregation” value (human platelets (ADP)) of the same molecule?
The value was “no inhibitory activity”.

What about the “Effect on ex vivo aggregation to thromboxane mimetic U46119” value [2] of the same molecule?
Its value is “no effect”.

What about the “Extent of inhibition of human platelet aggregation in response to SFLLRN” value (PAR1) of the same molecule?
Its value is “completely inhibited”.

What about the pIC50 (PAR1; read-out: IC50, inhibition of human platelet aggregation in response to PAR1 agonist SFLLRN) of the same molecule?
The pIC50 was 6.30.
